Laboratory results taken from US20250288514A1, “SKIN-SOOTHING COMPOSITION” (Amorepacific Corporation, priority 2024, published 2025).

Experiments:
mast cell degranulation = settings: stated as known; cited from earlier work
[1] = Dilution of stock in medium (state of the composition); type: physicochemical; settings: 50 ppm in medium, from stock in purified water or DMSO
Text: Because PEA was suspended at the 50 ppm, this composition was not used for an experiment.

[2] = Cell toxicity of the composition; settings: 50 ppm
Procedure: A composition was prepared by adding 1 g of (−)-epigallocatechin gallate 5 (EGCG) to 100 g of purified water or dimethyl sulfoxide (DMSO) to prepare a stock and diluting the stock to 50 ppm.

filaggrin protein = assay: Moisturizing factor evaluation: filaggrin protein expression in artificial skin treated with inflammation cocktail; type: cell-based; settings: inflammation cocktail IFN-γ (20 ng/ml)+TNF-α (20 ng/ml), compositions at 50 ppm, FIG. 3
claudin-1 protein = assay: Skin cohesion evaluation: claudin-1 protein expression in artificial skin treated with inflammation cocktail; type: cell-based; settings: inflammation cocktail IFN-γ (20 ng/ml)+TNF-α (20 ng/ml), compositions at 50 ppm, FIG. 2
PGE2 (Prostaglandin E2) = assay: Skin redness evaluation: amount of PGE2 in artificial skin treated with inflammatory factor; type: cell-based; settings: TNF-α+IFN-γ (20 ng/ml), FIG. 4
Text: PGE2 is a factor that induces vasodilation and causes skin redness, wherein the smaller amount of PGE2, the less vasodilation induction, thereby suppressing the skin redness, and the skin redness evaluation results are shown in FIG. 4.

Molecule: CCCCCCCCCCCCCCCC(=O)NCCO [PEA, palmitoylethanolamide]
- effect of suppressing the mast cell degranulation (mast cell degranulation): no effect of suppressing the mast cell degranulation
- state on dilution in medium [1]: suspended

Molecule: (−)-epigallocatechin gallate [EGCG]
- cell toxicity [2]: cell toxicity

Molecule: CCCCCCCCCCCCCCCC(=O)NCCO [Comparative Example 4, palmitoylethanolamide]
- expression level of filaggrin protein (filaggrin protein): not recovered from the decrease of the protein expression
- expression level of claudin-1 protein (claudin-1 protein): not recovered from the decrease in the protein expression of the claudin-1 protein

Molecule: (−)-epigallocatechin gallate [Comparative Example 7]
- expression level of filaggrin protein (filaggrin protein): not recovered from the decrease of the protein expression
- expression level of claudin-1 protein (claudin-1 protein): not recovered from the decrease in the protein expression of the claudin-1 protein

Molecule: Oc1cc(O)c2c(c1)O[C@H](c1ccc(O)c(O)c1)[C@H](O)C2 [Example 3, epicatechin]
- expression level of filaggrin protein (filaggrin protein): recovered from the decrease of the protein expression
- amount of PGE2 (PGE2 (Prostaglandin E2)): the amount of PGE2 was suppressed
- expression level of claudin-1 protein (claudin-1 protein): recovered from the decrease in the protein expression of the claudin-1 protein
